Test results as given in US9000036B2, “Compositions and methods for targeting of treating neoplasms” (priority 2006, dated 2015).

Legend:
non-Hodgkin lymphoma = assay: Patient case: malignant lymphoma, chemotherapy and intravenous target therapy; assay type: in vivo, human; conditions: one patient, DDP, Vp-16 and IF0 given together
Protocol: From November of 2002 to August of 2003, the radiotherapy at both axillary regions was administered with DT49Gy, the radiotherapy at both neck regions were administered with DT45Gy. […] The hydrops was drawn off by puncture from the right thoracic cavity, cytology reported: a large amount of lymphocytes and mesothelial cells. The patient was admitted to the hospital for further treatment.
The B ultrasonotrophy on Feb.
After the intravenous target therapy of Bruceantin, Tetrandrine, thalicarpine, maytansine seperately as target agents in combination with anti-cancer drugs by stannous chloride affection for a conjugate as complex for six courses (all kinds of anti-cancer drugs), the effect was obvious.
From Feb. 27, 2006 to Mar. 24, 2006, the intravenous target chemotherapy of Bruceantin and Tetrandrine separately as target agents in combination with anti-cancer drugs by stannous chloride effective for conjugate as complex was administered for a period of four week. On Mar.
The intravenous target chemotherapy of Bruceantin as targeting compound in combination with anti-cancer drugs by stannous chloride function for conjugate as complex was continued for several courses. The CT re-examination in Shandong Medical Imaging Research Institute on Jul.
During the hospitalization, the patient was administered Bruceantin as targeting compound, in combination with the medicaments of 16 times (Arsenic trioxide 5 mg) and 6 times (Ara-C 50 mg), 12 times (cyclophosphamide 0.1), 2 times and VP 16) 50 mg.

[1] = test system: gastric antrum cancer, intrahepatic lump; conditions: human, in vivo, iv
Protocol: The lateral lump by the lesser curvature of gastric antrum was administered a intratumoral chemotherapy for 3 times/week for three weeks, the lump at the head of pancreas region was administered intratumoral chemotherapy for 2 times/week fro two weeks, abdominal cavity was perfused for 6 times, in which 5-Fu+DDP 20 mg+IL-2 10^6 u were administered for 2 times, Bruceantin plus Adriamycin were perfused to abdominal cavity for 4 times in three weeks.
The intrahepatic lump was administered intratumoral chemotherapy for once. […] ETIFENIN (EHIDA) as target agent in combination with anticancer drugs plus stannous chloride were mixed for a conjugate as a complex, then it was administered intravenous for target therapy and repeated same therapy for 6 times (the formulated medicament mainly comprises: DDP 20 mg for 2 times, 5-Fu 0.5 for 2 times, Ara-C 25 mg for 2 times).

[2] = test system: D4 and CD8 antibodies activity; assay: CytoxiLux analysis (flow cytometry, FIGS. 1A-B); assay type: cell-based; conditions: lymphoma C57 mice
Protocol: FIGS. 1A-B show flow cytometry results for CD4 and CD8 immunostaining cells
(§1) Lymphoma cells line growth in the culture for days to reach about 10×10^3, then it is implanted into the right arm of mice C57, about one week, tumor grow to 1 cm size. We prepared that Bruceantin […], Adymicine 10 mg and hapten DNP 0.5 mg were added into the stannous chloride 0.05 mg solution for mixture incubate 5 minutes and produced a conjugated as complex. For treatment group: iv injection of this conjugated solution in 0.2 ml, two-time/week fro three weeks, for control group: iv injection of only 0.2 ml Ara-C, two-time/week for three weeks.

CD4 and CD8 [3] = assay: Immunological pathological analysis of removed osteosarcoma tumor (CD4, CD8); assay type: in vivo; conditions: C57 mice, after three weeks iv treatment
Protocol: Osteosarcoma cell line growth in the culture for days to reach 10×10^3, then it is implanted into right arm of mice C57, wait about one week, tumor grow to 1 cm size. We prepared that Methylene Diphosphonate (MDP) 100 mg, Ara-C 50 mg and hapten DNP 0.5 mg were added into the stannous chloride 0.05 mg solution for mixture, incubate 5 minutes and produced a conjugated as complex. For treatment group: iv injection of this conjugated solution in 0.2 ml, two time/week for three weeks, for control group: iv injection of only 0.2 ml Ara-C, two time/week for three weeks. […] Surgical removed tumor for immunological pathological analysis, CD4 and CD8 show positive for MDP-Ara-C-DNP conjugated therapy group, control group show negative of CD4 and CD8.

CD4 and CD8 [4] = assay: Immunological pathological analysis of removed lymphoma tumor (CD4, CD8); assay type: in vivo; conditions: C57 mice, after three weeks iv treatment
Protocol: as §1

Molecule: O=P1(NCCCl)OCCCN1CCCl (stereo not shown) [IF0]
- bone marrow inhibition after chemotherapy (non-Hodgkin lymphoma): inhibited to the III degree

Molecule: COc1cc([C@@H]2c3cc4c(cc3[C@@H](O[C@@H]3O[C@@H]5CO[C@@H](C)O[C@H]5[C@H](O)[C@H]3O)[C@H]3COC(=O)[C@H]23)OCO4)cc(OC)c1O [Vp-16]
- bone marrow inhibition after chemotherapy (non-Hodgkin lymphoma): inhibited to the III degree

Molecule: ETIFENIN (EHIDA) as target agent in combination with anticancer drugs
- symptoms after treatment [1]: abdominal pain, abdominal distention, decreased appetite, accompanied by night sweating and debilitation

Molecule: N.N.[Cl][Pt][Cl] [DDP, Cisplatin]
- bone marrow inhibition after chemotherapy (non-Hodgkin lymphoma): inhibited to the III degree

Molecule: Nc1ccn([C@@H]2O[C@H](CO)[C@@H](O)[C@@H]2O)c(=O)n1 [Ara-C, Cytidine Arabinosyladenine]
- index of D4 and CD8 antibodies activity [2]: 28%
- CD4 and CD8 in removed tumor (CD4 and CD8 [3]): negative
- CD4 and CD8 in removed tumor (CD4 and CD8 [4]): negative
